Reference: patent publication US20240287052A1, “NOVEL OXAZOLE DERIVATIVE AND PHARMACEUTICAL COMPOSITION FOR PREVENTING OR TREATING ALLERGIC DISEASES COMPRISING THE SAME” (AZCURIS CO., LTD., priority 2021, published 2024)
Read-outs that look alike come from different tables or passages of the source.

Target: T1, IL33 and ST2 binding (Homo sapiens, UniProt O95760)
T1 sequence (O95760 112-270 limits assumed): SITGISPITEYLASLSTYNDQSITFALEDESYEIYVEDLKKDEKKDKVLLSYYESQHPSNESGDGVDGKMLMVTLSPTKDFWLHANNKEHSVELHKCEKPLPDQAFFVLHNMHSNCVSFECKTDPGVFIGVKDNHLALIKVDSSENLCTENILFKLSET
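Note: plate ELISA with coated Flag-tagged human IL-33 and His-tagged human ST2, bound ST2 detected by anti-His HRP and TMB absorbance at 450 nm, 2 h compound incubation.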

Procedure: 100 nM of Flag tagged IL-33 human recombinant protein was prepared in 1× coating buffer (Biolegend) and placed in a 96 well microplate (Coming) using a Multichannel pipette (Gilson) and coated for at least 12 hours at 4° C.
After washing three times with PBST (1×PBS (Welgene), 1% Tween 20 (sigma)), it was reacted with 1% BSA (Bovogen) blocking buffer for 1 hour at room temperature.
Samples containing 200 nM of His-tagged ST2 human recombinant protein and 60 μM or 200 μM Example synthetic compounds were prepared, added in equal volumes, and reacted for at least 2 hours at room temperature.
After washing three times with PBST (1×PBS (Welgene), 1% Tween 20 (sigma)), anti-His HRP (BioLegend) antibody was diluted 5000:1 and reacted for at least 1 hour at room temperature.
After washing three times with PBST (1×PBS (Welgene), 1% Tween 20 (sigma)), TMB substrate solution (Thermo) was added and reacted for more than 5 minutes. The reaction was stopped by adding 1 N HCl (Samchun) and the absorbance value was obtained at 450 nm after orbital shaking for 5 s with a Microplate reader (Tecan, Spark®).
The results derived from the program linked to the microplate reader were analyzed using an Excel program. IL33-ST2 binding rate (binding %) was calculated by averaging the three values obtained in triplicate, subtracting the positive control value, and converting the negative control value to 100%. The inhibition % value of each compound was obtained by subtracting the IL33-ST2 binding % from 100%, and the error range of triplicate was also obtained and reflected in the inhibition graph of the compound.

inhibition (30 µM) | inhibition (100 µM) | Structure (SMILES)
24% | 36% | CN1CCN(CCNC(=O)c2nc(-c3ccccc3C(F)(F)F)oc2-c2ccccc2)CC1 [Compound 118, N-(2-(4-Methylpiperazin-1-yl)ethyl)-5-phenyl-2-(2-(trifluoromethyl)phenyl)oxazole-4-carboxamide]
-6% | -14% | CN(C)CCNC(=O)c1nc(-c2ccccc2C(F)(F)F)oc1-c1ccccc1[N+](=O)[O-] [Compound 119, N-(2-(Dimethylamino)ethyl)-5-(2-nitrophenyl)-2-(2-(trifluoromethyl)phenyl)oxazole-4-carboxamide]
7% | 40% | CN1CCN(CCNC(=O)c2nc(-c3ccccc3C(F)(F)F)oc2-c2ccccc2[N+](=O)[O-])CC1 [Compound 120, N-(2-(4-Methylpiperazin-1-yl)ethyl)-5-(2-nitrophenyl)-2-(2-(trifluoromethyl)phenyl)oxazole-4-carboxamide]
-20% | -18% | CN(C)CCNC(=O)c1nc(-c2cccc(C(F)(F)F)c2)oc1-c1ccccc1 [Compound 121, N-(2-(Dimethylamino)ethyl)-5-phenyl-2-(3-(trifluoromethyl)phenyl)oxazole-4-carboxamide]
-18% | 0% | CN1CCN(CCNC(=O)c2nc(-c3cccc(C(F)(F)F)c3)oc2-c2ccccc2)CC1 [Compound 122, N-(2-(4-Methylpiperazin-1-yl)ethyl)-5-phenyl-2-(3-(trifluoromethyl)phenyl)oxazole-4-carboxamide]
-22% | 39% | CN(C)CCNC(=O)c1nc(-c2cccc(C(F)(F)F)c2)oc1-c1ccccc1[N+](=O)[O-] [Compound 123, N-(2-(Dimethylamino)ethyl)-5-(2-nitrophenyl)-2-(3-(trifluoromethyl)phenyl)oxazole-4-carboxamide]
50% | 31% | CN1CCN(CCNC(=O)c2nc(-c3cccc(C(F)(F)F)c3)oc2-c2ccccc2[N+](=O)[O-])CC1 [Compound 124, N-(2-(4-Methylpiperazin-1-yl)ethyl)-5-(2-nitrophenyl)-2-(3-(trifluoromethyl)phenyl)oxazole-4-carboxamide]
20% | 24% | CN(C)CCN1CCN(C(=O)c2nc(-c3cccc(C(F)(F)F)c3)oc2-c2ccccc2[N+](=O)[O-])CC1 [Compound 125, (4-(2-(Dimethylamino)ethyl)piperazin-1-yl)(5-(2-nitrophenyl)-2-(3-(trifluoromethyl)phenyl)oxazol-4-yl)methanone]
-14% | 6% | CN(C)CCNC(=O)c1nc(-c2ccc(C(F)(F)F)cc2)oc1-c1ccccc1 [Compound 126, N-(2-(Dimethylamino)ethyl)-5-phenyl-2-(4-(trifluoromethyl)phenyl)oxazole-4-carboxamide]
-24% | -5% | CN1CCN(CCNC(=O)c2nc(-c3ccc(C(F)(F)F)cc3)oc2-c2ccccc2)CC1 [Compound 127, N-(2-(4-Methylpiperazin-1-yl)ethyl)-5-phenyl-2-(4-(trifluoromethyl)phenyl)oxazole-4-carboxamide]
45% | 79% | CN(C)CCN1CCN(C(=O)c2nc(-c3ccc(C(F)(F)F)cc3)oc2-c2ccccc2)CC1 [Compound 129]
11% | 37% | O=C(NCCc1ccc(O)cc1)c1nc(-c2ccc(C(F)(F)F)cc2)oc1-c1ccccc1 [Compound 130, N-(4-Hydroxyphenethyl)-5-phenyl-2-(4-(trifluoromethyl)phenyl)oxazole-4-carboxamide]
91% | 92% | CN(C)CCNC(=O)c1nc(-c2ccc(C(F)(F)F)cc2)oc1-c1ccccc1[N+](=O)[O-] [Compound 131, N-(2-(Dimethylamino)ethyl)-5-(2-nitrophenyl)-2-(4-(trifluoromethyl)phenyl)oxazole-4-carboxamide]
6% | 11% | O=C(c1nc(-c2ccc(C(F)(F)F)cc2)oc1-c1ccccc1[N+](=O)[O-])N1CCCC1 [Compound 138, (5-(2-Nitrophenyl)-2-(4-(trifluoromethyl)phenyl)oxazol-4-yl)(pyrrolidin-1-yl)methanone]
4% | 13% | O=C(NCCN1CCCC1)c1nc(-c2ccc(C(F)(F)F)cc2)oc1-c1ccccc1[N+](=O)[O-] [Compound 139, 5-(2-Nitrophenyl)-N-(2-(pyrrolidin-1-yl)ethyl)-2-(4-(trifluoromethyl)phenyl)oxazole-4-carboxamide]
10% | 15% | O=C(NCCCN1CCCC1)c1nc(-c2ccc(C(F)(F)F)cc2)oc1-c1ccccc1[N+](=O)[O-] [Compound 140, 5-(2-Nitrophenyl)-N-(3-(pyrrolidin-1-yl)propyl)-2-(4-(trifluoromethyl)phenyl)oxazole-4-carboxamide]
-11% | -3% | O=C(NCc1ccncc1)c1nc(-c2ccc(C(F)(F)F)cc2)oc1-c1ccccc1[N+](=O)[O-] [Compound 141, 5-(2-Nitrophenyl)-N-(pyridin-4-ylmethyl)-2-(4-(trifluoromethyl)phenyl)oxazole-4-carboxamide]
6% | 8% | O=C(NCc1cccnc1)c1nc(-c2ccc(C(F)(F)F)cc2)oc1-c1ccccc1[N+](=O)[O-] [Compound 142, 5-(2-Nitrophenyl)-N-(pyridin-3-ylmethyl)-2-(4-(trifluoromethyl)phenyl)oxazole-4-carboxamide]
9% | 8% | O=C(Nc1ccccn1)c1nc(-c2ccc(C(F)(F)F)cc2)oc1-c1ccccc1[N+](=O)[O-] [Compound 143, 5-(2-Nitrophenyl)-N-(pyridin-2-yl)-2-(4-(trifluoromethyl)phenyl)oxazole-4-carboxamide]
-19% | -34% | O=C(c1nc(-c2ccc(C(F)(F)F)cc2)oc1-c1ccccc1[N+](=O)[O-])N1CCCCC1 [Compound 144, (5-(2-Nitrophenyl)-2-(4-(trifluoromethyl)phenyl)oxazol-4-yl)(piperidin-1-yl)methanone]
3% | 11% | O=C(c1nc(-c2ccc(C(F)(F)F)cc2)oc1-c1ccccc1[N+](=O)[O-])N1CCC(c2ccccc2)CC1 [Compound 145, (5-(2-Nitrophenyl)-2-(4-(trifluoromethyl)phenyl)oxazol-4-yl)(4-phenylpiperidin-1-yl)methanone]
-35% | -57% | O=C(c1nc(-c2ccc(C(F)(F)F)cc2)oc1-c1ccccc1[N+](=O)[O-])N1CCN(C2CC2)CC1 [Compound 146, (4-Cyclopropylpiperazin-1-yl)(5-(2-nitrophenyl)-2-(4-(trifluoromethyl)phenyl)oxazol-4-yl)methanone]
1% | 4% | CC(=O)c1ccc(NC(=O)c2nc(-c3ccc(C(F)(F)F)cc3)oc2-c2ccccc2[N+](=O)[O-])cc1 [Compound 147, N-(4-Acetylphenyl)-5-(2-nitrophenyl)-2-(4-(trifluoromethyl)phenyl)oxazole-4-carboxamide]
12% | 19% | O=C(NCc1ccc(C(F)(F)F)cc1)c1nc(-c2ccc(C(F)(F)F)cc2)oc1-c1ccccc1[N+](=O)[O-] [Compound 148, 5-(2-Nitrophenyl)-N-(4-(trifluoromethyl)benzyl)-2-(4-(trifluoromethyl)phenyl)oxazole-4-carboxamide]
